# Data taken from the supplement of paper PMC10307832.
# Key:
# Test in all cases: relative viability (nuclei count vs DMSO), 5 days (fraction); higher = more cells survive
# H3255 = test system: H3255
# In short: (§1)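 Lung cancer cell lines were seeded in 1536-well plates and dosed by pin tool the next day, with either a single drug or a fixed anchor-drug dose combined with five library-drug doses (not always all listed) spaced in √10 steps. Five days later, one step fixed the cells and stained their nuclei (final 0.05% Triton X-100, 1% formaldehyde, 1 ug/ml Hoechst), and nuclei were counted on 4× images. Relative viability is the nuclei count in treated wells divided by the count in vehicle wells, and each value is the median of duplicate plates.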
# 201T = test system: 201T
# In short: as §1
# NCI-H2170 = test system: NCI-H2170
# In short: as §1
# EPLC-272H = test system: EPLC-272H
# In short: as §1
# NCI-H1437 = test system: NCI-H1437
# In short: as §1
# NCI-H1975 = test system: NCI-H1975
# In short: as §1
# NCI-H2085 = test system: NCI-H2085
# In short: as §1
# SW 1573 = test system: SW 1573
# In short: as §1
# COR-L 105 = test system: COR-L 105
# In short: as §1
# LCLC-97TM1 = test system: LCLC-97TM1
# In short: as §1
# NCI-H1666 = test system: NCI-H1666
# In short: as §1
# PC-3 [JPC-3] = test system: PC-3 [JPC-3]
# In short: as §1
# LOU-NH91 = test system: LOU-NH91
# In short: as §1
# EKVX = test system: EKVX
# In short: as §1
# NCI-H650 = test system: NCI-H650
# In short: as §1
# NCI-H647 = test system: NCI-H647
# In short: as §1
# HCC-827 = test system: HCC-827
# In short: as §1
# NCI-H2342 = test system: NCI-H2342
# In short: as §1
# LU99A = test system: LU99A
# In short: as §1
# BEN = test system: BEN
# In short: as §1
# NCI-H2087 = test system: NCI-H2087
# In short: as §1
# HCC-44 = test system: HCC-44
# In short: as §1
compound,measurement,setting,value
Nc1ccn([C@@H]2O[C@H](CO)[C@@H](O)[C@@H]2O)c(=O)n1 [Cytarabine] + O=C(c1cc(Cc2n[nH]c(=O)c3ccccc23)ccc1F)N1CCN(C(=O)C2CC2)CC1 [Olaparib] (partner 8 µM),relative viability,H3255; first compound 0.005 µM,0.569
same,relative viability,H3255; first compound 0.01581 µM,0.552
same,relative viability,H3255; first compound 0.05 µM,0.495
same,relative viability,H3255; first compound 0.1581 µM,0.526
same,relative viability,H3255; first compound 0.5 µM,0.446
same,relative viability,201T; first compound 0.005 µM,0.832
same,relative viability,201T; first compound 0.01581 µM,0.877
same,relative viability,201T; first compound 0.05 µM,0.914
same,relative viability,201T; first compound 0.1581 µM,0.847
same,relative viability,201T; first compound 0.5 µM,0.827
same,relative viability,NCI-H2170; first compound 0.005 µM,0.544
same,relative viability,NCI-H2170; first compound 0.01581 µM,0.47
same,relative viability,NCI-H2170; first compound 0.05 µM,0.408
same,relative viability,NCI-H2170; first compound 0.1581 µM,0.265
same,relative viability,NCI-H2170; first compound 0.5 µM,0.23
same,relative viability,EPLC-272H; first compound 0.005 µM,0.476
same,relative viability,EPLC-272H; first compound 0.01581 µM,0.57
same,relative viability,EPLC-272H; first compound 0.05 µM,0.607
same,relative viability,EPLC-272H; first compound 0.1581 µM,0.244
same,relative viability,EPLC-272H; first compound 0.5 µM,0.123
same,relative viability,NCI-H1437; first compound 0.005 µM,0.529
same,relative viability,NCI-H1437; first compound 0.01581 µM,0.51
same,relative viability,NCI-H1437; first compound 0.05 µM,0.469
same,relative viability,NCI-H1437; first compound 0.1581 µM,0.283
same,relative viability,NCI-H1437; first compound 0.5 µM,0.234
same,relative viability,NCI-H1975; first compound 0.005 µM,0.671
same,relative viability,NCI-H1975; first compound 0.01581 µM,0.871
same,relative viability,NCI-H1975; first compound 0.05 µM,0.561
same,relative viability,NCI-H1975; first compound 0.1581 µM,0.429
same,relative viability,NCI-H1975; first compound 0.5 µM,0.253
same,relative viability,NCI-H2085; first compound 0.005 µM,0.718
same,relative viability,NCI-H2085; first compound 0.01581 µM,0.727
same,relative viability,NCI-H2085; first compound 0.05 µM,0.802
same,relative viability,NCI-H2085; first compound 0.1581 µM,0.655
same,relative viability,NCI-H2085; first compound 0.5 µM,0.61
same,relative viability,SW 1573; first compound 0.005 µM,0.513
same,relative viability,SW 1573; first compound 0.01581 µM,0.329
same,relative viability,SW 1573; first compound 0.05 µM,0.384
same,relative viability,SW 1573; first compound 0.1581 µM,0.166
same,relative viability,SW 1573; first compound 0.5 µM,0.108
same,relative viability,COR-L 105; first compound 0.005 µM,0.841
same,relative viability,COR-L 105; first compound 0.01581 µM,0.791
same,relative viability,COR-L 105; first compound 0.05 µM,0.417
same,relative viability,COR-L 105; first compound 0.1581 µM,0.469
same,relative viability,COR-L 105; first compound 0.5 µM,0.358
same,relative viability,LCLC-97TM1; first compound 0.005 µM,0.34
same,relative viability,LCLC-97TM1; first compound 0.01581 µM,0.333
same,relative viability,LCLC-97TM1; first compound 0.05 µM,0.183
same,relative viability,LCLC-97TM1; first compound 0.1581 µM,0.126
same,relative viability,LCLC-97TM1; first compound 0.5 µM,0.106
same,relative viability,NCI-H1666; first compound 0.005 µM,0.675
same,relative viability,NCI-H1666; first compound 0.01581 µM,0.754
same,relative viability,NCI-H1666; first compound 0.05 µM,0.694
same,relative viability,NCI-H1666; first compound 0.1581 µM,0.613
same,relative viability,NCI-H1666; first compound 0.5 µM,0.684
same,relative viability,PC-3 [JPC-3]; first compound 0.005 µM,0.508
same,relative viability,PC-3 [JPC-3]; first compound 0.01581 µM,1.09
same,relative viability,PC-3 [JPC-3]; first compound 0.05 µM,0.971
same,relative viability,PC-3 [JPC-3]; first compound 0.1581 µM,0.682
same,relative viability,PC-3 [JPC-3]; first compound 0.5 µM,0.617
same,relative viability,LOU-NH91; first compound 0.005 µM,0.89
same,relative viability,LOU-NH91; first compound 0.01581 µM,0.905
same,relative viability,LOU-NH91; first compound 0.05 µM,0.833
same,relative viability,LOU-NH91; first compound 0.1581 µM,0.676
same,relative viability,LOU-NH91; first compound 0.5 µM,0.625
same,relative viability,EKVX; first compound 0.005 µM,0.819
same,relative viability,EKVX; first compound 0.01581 µM,0.665
same,relative viability,EKVX; first compound 0.05 µM,0.695
same,relative viability,EKVX; first compound 0.5 µM,0.234
same,relative viability,NCI-H650; first compound 0.005 µM,0.363
same,relative viability,NCI-H650; first compound 0.01581 µM,0.277
same,relative viability,NCI-H650; first compound 0.05 µM,0.169
same,relative viability,NCI-H650; first compound 0.1581 µM,0.14
same,relative viability,NCI-H650; first compound 0.5 µM,0.156
same,relative viability,NCI-H647; first compound 0.005 µM,0.285
same,relative viability,NCI-H647; first compound 0.01581 µM,0.22
same,relative viability,NCI-H647; first compound 0.05 µM,0.174
same,relative viability,NCI-H647; first compound 0.1581 µM,0.0623
same,relative viability,NCI-H647; first compound 0.5 µM,0.0624
same,relative viability,HCC-827; first compound 0.005 µM,0.459
same,relative viability,HCC-827; first compound 0.01581 µM,0.367
same,relative viability,HCC-827; first compound 0.05 µM,0.0662
same,relative viability,HCC-827; first compound 0.1581 µM,0.159
same,relative viability,HCC-827; first compound 0.5 µM,0.189
same,relative viability,NCI-H2342; first compound 0.005 µM,0.477
same,relative viability,NCI-H2342; first compound 0.01581 µM,0.477
same,relative viability,NCI-H2342; first compound 0.05 µM,0.468
same,relative viability,NCI-H2342; first compound 0.1581 µM,0.389
same,relative viability,NCI-H2342; first compound 0.5 µM,0.31
same,relative viability,LU99A; first compound 0.005 µM,0.307
same,relative viability,LU99A; first compound 0.01581 µM,0.28
same,relative viability,LU99A; first compound 0.05 µM,0.24
same,relative viability,LU99A; first compound 0.1581 µM,0.24
same,relative viability,LU99A; first compound 0.5 µM,0.241
same,relative viability,BEN; first compound 0.005 µM,0.822
same,relative viability,BEN; first compound 0.01581 µM,0.703
same,relative viability,BEN; first compound 0.05 µM,0.637
same,relative viability,BEN; first compound 0.1581 µM,0.447
same,relative viability,BEN; first compound 0.5 µM,0.384
same,relative viability,NCI-H2087; first compound 0.005 µM,0.413
same,relative viability,NCI-H2087; first compound 0.01581 µM,0.618
same,relative viability,NCI-H2087; first compound 0.05 µM,0.578
same,relative viability,NCI-H2087; first compound 0.1581 µM,0.348
same,relative viability,NCI-H2087; first compound 0.5 µM,0.19
same,relative viability,HCC-44; first compound 0.005 µM,1.03
same,relative viability,HCC-44; first compound 0.01581 µM,1.05
same,relative viability,HCC-44; first compound 0.05 µM,0.975
same,relative viability,HCC-44; first compound 0.1581 µM,0.896
same,relative viability,HCC-44; first compound 0.5 µM,0.848
